Experimental data taken from the NIST ThermoML archive (doi:10.1016/j.fluid.2005.03.016).
Several values for one entry are separate records, joined by “and”; a condition that tells them apart may be missing. Equal values may be shown once. ± gives the expanded uncertainty stated by the source.

Settings: Liquid, Closed cell (Static) method

SMILES	vapor or sublimation pressure (313.07 K)	vapor or sublimation pressure (313.08 K)	vapor or sublimation pressure (313.1 K)	other results
CCO [ethanol]	17.77 ± 0.41 kPa	–	–	–
CC(C)C [2-methylpropane]	–	530.05 ± 2.4 kPa and 529.95 ± 2.4 kPa	529.95 ± 2.4 kPa	vapor or sublimation pressure (313.06 K): 529.65 ± 2.3 kPa; vapor or sublimation pressure (313.12 K): 530.75 ± 2.3 kPa
CC(C)(C)O [2-methylpropan-2-ol]	–	13.77 ± 0.41 kPa	–	–
CC(C)O [propan-2-ol]	–	–	–	vapor or sublimation pressure (313.11 K): 13.77 ± 0.41 kPa
CCC(C)O (centres undefined) [butan-2-ol]	–	–	5.97 ± 0.4 kPa	–
CO [methanol]	35.27 ± 0.43 kPa	–	–	–
